For 25 compounds, TGI and GI50 results are on record in PubChem BioAssay (NCI).

“And” between values parts separate entries of the source, which are not always exact repeats. Identical values can stand only once.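 How tested: cells in 96-well plates exposed to compound for 48 hours at five concentrations. The concentration for 50% growth inhibition is given as GI50. TGI: total growth inhibition.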 A value given as a limit tells only on which side of the number the result lay.

Assay in all cases: NCI tumour cell line growth inhibition, 48 h
In assay [1] the test system is RXF-631 renal.
Assay [2] concerns KM20L2 colon.
In assay [3] the test system is HS 578T breast.
Assay [4] concerns NCI/ADR-RES ovarian.
For assay [5], the system named is MDA-N.
In assay [6] the test system is MCF7 breast.
Assay [7] deals with T-47D breast.
The subject of assay [8] is HOP-18 NSCLC.
In assay [9] the test system is SN12K1 renal.
Assay [10] concerns P388 leukemia.
The subject of assay [11] is P388/ADR leukemia.

In the case of `O=c1c2ccccc2[nH]c2c(O)ccc(O)c12`, the TGI in [1] was 51.5 µM; in assay [2], over 100 µM.
For `O=C(O)C1CC=CCC1C(=O)Nc1cccc(O)c1` (stereo not drawn), the TGI in assay [3], in [4], in assay [5], in assay [6] and in assay [7] was over 100 µM each time.
As to `O=C1C(=C2CCCC2)CCC1CN1CCCCC1` (stereo not drawn), the results for the TGI in assay [2] and in assay [8] were 32.9 µM and 28.7 µM, respectively.
As for `c1ccc(CN2CCc3[nH]c4ccccc4c3C2)cc1`, the TGI in [9] is 29.1 µM; in assay [3], 79.9 µM; in assay [4], over 63.3 µM; in [5] it was 44 µM; in [6] it was 31.9 µM; in [1] it was 38.5 µM. Besides, the figures for the TGI in assay [2], in assay [8] and in assay [7] were 26.3 µM, over 100 µM and 47.2 µM, respectively.
`Cc1coc2c1C(=O)C(=O)c1ccccc1-2` yielded a TGI in [2] of 11.2 µM.
With `CC(C)c1ccc(C2NC(=S)NC3=C2c2ccccc2C3=O)cc1` (stereo not drawn), the TGI in [3] was 42.1 µM; in assay [4] it was 33.3 µM; in [5], 20.6 µM; in [6] it was 23.1 µM; in assay [1] it was over 100 µM; in [2], 64.5 µM. Further, the TGI in [7] stood at 35.5 µM.
Take `CCc1cccc(C(C)C)c1NC(=O)CCl`: the TGI in [1] is 37.4 µM; in assay [2], over 100 µM.
Regarding `Cc1ccc(S(=O)(=O)NC(=O)NCCc2ccccc2)cc1`, the TGI in assay [2] and in assay [8] was over 100 µM each time.
Turning to `Nc1ccc(-c2cc(C(=O)Nc3nccs3)[nH]c(=S)n2)cc1`, the TGI in assay [2] and in assay [8] was over 100 µM each time.
`C[P+](C)(C)C`: the TGI in assay [1], in assay [2] and in [8] was over 100 µM in each case.
In assay [2], `CC1=C(C(=O)NCc2ccccc2)C(c2ccc(Cl)c(Cl)c2)C(C(=O)NCc2ccccc2)=C(C)N1` came in with a TGI of over 100 µM.
Regarding `CC1=CC(C)(c2c[nH]c3ccccc23)CC(C)(C)c2c1[nH]c1ccccc21` (stereo not drawn), the TGI in [1] was 31.8 µM; in assay [2] it was 31.4 µM; in assay [8], over 100 µM.
On to `Cc1cccc(C)c1NC(=O)CCC/C(CC(=O)c1ccc(F)cc1)=N\NC(=O)C(=O)NN`, for which the TGI in [1], in assay [2] and in [8] was over 100 µM each time.
Consider `CC1(C)CCCC2(C)C3C(O)CC2(C)C(O)C31` (stereo not drawn), for which the TGI in assay [2] and in assay [8] was over 100 µM each time.
For `CCCCC(C)/C=C/C(=O)C1=C(O)/C(=C/C(=O)O)OC1=O` (stereo not drawn), the TGI in assay [1], in [2] and in [8] was over 100 µM in each case.
Regarding `Cn1c(=O)nc2n(-c3ccc(Cl)cc3)c(-c3ccccc3)c(-c3ccccc3)nc-2c1=O`, the TGI in assay [1], in assay [2] and in [8] was over 100 µM in each case.
As for `C[C@H]1C/C=C/[C@H]2[C@@H]3O[C@]3(C)[C@@H](C)[C@H]3[C@H](Cc4ccccc4)NC(=O)[C@]32OC(=O)O/C=C/[C@@](C)(O)C1=O`, the TGI was 15.3 µM and 125 µM and 45.6 µM in assay [10]; > 81.9 µM and 125 µM and 160 µM in [4]; 54 µM in assay [5]; 64.4 µM and 125 µM and 67.2 µM in [6]; > 92.3 µM and 125 µM and > 250 µM in [2]; 0.162 µM in assay [8]. Besides, the TGI in [11] is 10.5 µM and 14 µM and 40.9 µM. Besides, the GI50 in [9] was 0.0125 µM; in assay [4] it was 34 µM and 33.3 µM; in assay [6] it was 0.0125 µM and 0.025 µM; in assay [2], 0.0125 µM; in assay [8] it was under 0.0116 µM; in [11] it was 0.434 µM and 0.194 µM and 0.69 µM.
The compound `Cc1ccc(S(=O)(=O)N/N=C(\c2nc3ccc([N+](=O)[O-])cc3[nH]c2=O)C(O)c2ccc([N+](=O)[O-])cc2)cc1` (stereo not drawn) came in with a TGI in assay [2] of over 100 µM.
Regarding `NC(=S)N=Nc1c(O)[nH]c2c(Cl)cc(Cl)cc12`, the TGI was 72.5 µM in assay [3], 38.7 µM in assay [4], 35.1 µM in assay [5] and over 100 µM in assay [6].
As for `CCOC(=O)C1C=C2O[C@@H]3OC4(CCCCC4)O[C@@H]3C2C2C(=O)CCC(=O)[C@@]12C(=O)OC` (stereo partly drawn), the TGI in assay [1], in [2] and in [8] was over 100 µM throughout.
Turning to `C/C(=N\NC(=O)C[N+](C)(C)C)c1sc(-c2cccnc2)nc1C`, the TGI in assay [1] and in assay [2] was over 100 µM throughout.
On to `OB(O)c1ccccc1C#Cc1ccccc1B(O)O`, for which the TGI is 51 µM in assay [3]; over 100 µM in assay [4]; 58.4 µM in assay [5]; 31.3 µM in assay [6]; 83.6 µM in [7].
Turning to `CCOC(=O)C(=O)Nc1cc(Cl)c(Cl)cc1Cl`, the TGI in assay [1] and in assay [2] was over 100 µM throughout.
As to `O=c1c2cc(Br)cc(Br)c2nc(CCCl)n1-c1ccc(O)c([N+](=O)[O-])c1`, the TGI in assay [8] is 30.4 µM.
Take `Cc1cccc(C)c1NC(=O)CCc1nnc2s/c(=C\c3ccc(N(C)C)cc3)c(=O)n12`: the TGI in [1] and in assay [2] was over 100 µM throughout.
